Target: SLY (suilysin) (Streptococcus suis, UniProt Q55996)
Assay: biochemical

SLY (suilysin), sequence (Q55996 28-497 limits assumed): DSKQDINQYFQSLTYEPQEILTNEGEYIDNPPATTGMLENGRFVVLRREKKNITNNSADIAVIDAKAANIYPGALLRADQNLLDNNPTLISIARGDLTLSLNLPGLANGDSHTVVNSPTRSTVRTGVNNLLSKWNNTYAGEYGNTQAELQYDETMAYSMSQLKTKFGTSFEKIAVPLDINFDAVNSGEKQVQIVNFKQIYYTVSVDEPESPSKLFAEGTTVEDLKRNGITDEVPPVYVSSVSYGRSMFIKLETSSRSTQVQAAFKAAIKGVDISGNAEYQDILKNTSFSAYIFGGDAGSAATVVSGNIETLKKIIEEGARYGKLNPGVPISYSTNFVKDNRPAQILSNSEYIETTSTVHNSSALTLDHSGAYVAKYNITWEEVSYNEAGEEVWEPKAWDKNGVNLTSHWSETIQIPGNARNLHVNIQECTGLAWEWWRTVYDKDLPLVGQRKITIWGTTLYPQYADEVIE

`O=c1cc(-c2ccccc2)oc2cc(O)c(O)c(O)c12` [Baicalein] gave a Kd of 865 nM.
